Experimental data as given in patent publication US20260274891A1, “¿ OPIOID RECEPTOR AGONIST AND USE THEREOF” (CHENGDU AODA BIOTECHNOLOGY CO., LTD., priority 2023, published 2026).
pEC50: −log10 of the molar value. Square brackets hold non-standard residues; d marks the D form. Side chains are listed from the residue outwards. Peptide text beside a SMILES is read from it. * marks the point of attachment. X12 = CCOc1ccc(C[C@@H](NC(=O)[C@H](N)Cc2ccccc2)C(=O)*)cc1; X1 = NCCCC[C@@H](NC(=O)C1(N)CCN(*)CC1)C(N)=O; dAla(cPr) = N[C@H](CC1CC1)C(=O)O; Api = NC1(C(=O)O)CCNCC1

Molecular target: T1, human κ opioid receptor (OPRK1) (Homo sapiens, UniProt P41145)
T1 construct: expressed in transfected cells; host or cells: CHO-K1
T1 sequence (P41145 whole entry): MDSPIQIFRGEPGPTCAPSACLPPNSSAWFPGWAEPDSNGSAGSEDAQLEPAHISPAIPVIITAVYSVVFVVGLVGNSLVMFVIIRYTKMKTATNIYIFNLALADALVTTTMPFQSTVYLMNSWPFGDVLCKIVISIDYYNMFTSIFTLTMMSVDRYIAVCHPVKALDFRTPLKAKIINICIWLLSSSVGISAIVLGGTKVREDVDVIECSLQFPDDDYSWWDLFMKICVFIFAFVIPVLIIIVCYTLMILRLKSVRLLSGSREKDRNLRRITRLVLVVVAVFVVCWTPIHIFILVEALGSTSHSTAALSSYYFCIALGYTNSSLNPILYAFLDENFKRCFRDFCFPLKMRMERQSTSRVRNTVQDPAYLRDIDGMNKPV
Assay: Determination of activities of κ receptor agonists: inhibition of forskolin-stimulated cAMP release (HTRF) in stably transfected CHO-K1 cells
Assay type: cell-based
Conditions: for Relative Activity %: relative to Difelikefalin = 100.0
Procedure, shortened: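 Stably transfected CHO-K1 cells stimulated with graded agonist concentrations in presence of forskolin (concentration not specified). Inhibition of forskolin-stimulated cAMP read by HTRF as relative light units; EC50 calculated from dose-response.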

SMILES | pEC50 | Relative Activity % [%]
CCOc1ccc(C[C@@H](NC(=O)[C@H](N)Cc2ccccc2)C(=O)N[C@H](CC(C)C)C(=O)N[C@H](CCCCN)C(=O)N2CCC(N)(C(=O)N[C@H](CCCCN)C(=O)N[C@H](CCCCN)C(=O)N[C@H](CCCCN)C(=O)N[C@H](CCCCN)C(=O)N[C@H](CCCCN)C(N)=O)CC2)cc1 [Compound 23, D-Phe-D-Tyr(Et)-D-Leu-D-Lys-4-aminopiperidine-4-carboxamide-D-Lys-D-Lys-D-Lys-D-Lys -D-Lys-NH2] (H-[Api]([dK-dL-X12])[dK][dK][dK][dK][dK]-NH2; N-terminus assumed) | 10.26 | 1096.0
CCOc1ccc(C[C@@H](NC(=O)[C@H](N)Cc2ccccc2)C(=O)N[C@H](CC2CC2)C(=O)N[C@H](CCCCN)C(=O)N2CCC(N)(C(=O)N[C@H](CCCCN)C(N)=O)CC2)cc1 [Compound 71, D-Phe-D-Tyr(Et)-D-cyclopropylalanine-D-Lys-4-aminopiperidine-4-carboxamide-D-Lys-NH2] (H-[dF][dY](Et)[dAla(cPr)][dK]-X1; N-terminus assumed) | 10.39 | 1481.0
CC(C)C[C@@H](NC(=O)[C@@H](Cc1ccc(I)cc1)NC(=O)[C@H](N)Cc1ccccc1)C(=O)N[C@H](CCCCN)C(=O)N1CCC(N)(C(=O)N[C@@H](CCCCN)C(N)=O)CC1 [Compound 123, D-Phe-D-Phe(4-I)-D-Leu-D-Lys-4-aminopiperidine-4-carboxamide-Lys-NH2] | 10.27 | 1135.0
